The text below walks through data of a melting point compilation (Tetko et al.; mined from patent text by program, amines drawn as free bases though some values may be those of a salt).

Regarding `NS(=O)(=O)Oc1ccc(C(c2ccc(OS(N)(=O)=O)c(Br)c2)n2cncn2)cc1Br`, the melting point is 98 to 102 °C.
Then `N#Cc1cc(C(=O)Cl)n(/C=C/c2ccccc2)c1`, with 119 to 121 °C; and `NS(=O)(=O)Oc1ccc(Cl)cc1`, with 103 to 104 °C.
For the molecule `COC(=O)c1ccc2occ(-c3ccc(SC)c(Cl)c3)c2c1`, the melting point fell in the range of 115 to 116 °C.
Then `Cc1ccnc2c1n(C(C)C)c(=O)n2-c1ccc(Oc2nc3cccnc3n2C)cc1`, with 270 to 271 °C.
Molecule `Cc1nc2c(s1)CN=C(c1ccccc1Cl)c1cc(Cl)ccc1-2` yielded a melting point of 162 to 164 °C.
Molecule `CCc1cn(S(=O)(=O)c2ccc(C)cc2)c2cc(C(=O)Nc3c(Cl)cncc3Cl)ccc12` gave a melting point of 147 to 149 °C.
Then `CCOC(=O)NC(=S)Nc1ccsc1C(=O)OC`, with 165 to 167 °C; and `CC1(C)C(C=C(Cl)Cl)C1(C)C(=O)O` (stereo not given), with 137 to 138 °C.
Then `NNC(=O)c1ccc2ncccc2c1`, with 193 to 194 °C.
`CCOC(=O)CCCCSc1nc2ccccc2[nH]1` returned a melting point of 88 to 90 °C.
`O=C(NCc1ccccc1OC(F)(F)F)[C@@H]1CCCN(c2cccc3c2C(=O)N(Cc2ccncc2)C3=O)C1` gave a melting point of 197 to 198 °C.
As to `COc1ccc2cc(-c3ccc(OCCN4CCCC4)cc3)sc2c1`, the melting point was in the range of 151 to 154 °C.
In turn, `CC(C)(C)C(NC(=O)c1cc(F)cc(F)c1)Nc1c(Nc2cccnc2Cl)c(=O)c1=O` (stereo not given) showed a melting point of 215 to 217 °C.
In the case of `N#Cc1c(N)nc2ccc([N+](=O)[O-])cc2c1O`, the melting point is over 360 °C.
Then `CCOC(=O)c1c(C2CCNCC2)[nH]c(-c2cccc(C(F)(F)F)c2)c1-c1ccncc1`, with 233 to 235 °C; and `C#Cc1ccc2c(c1)Cc1cc(C#C)ccc1-2`, with 125 °C.
For the molecule `CC(C)(C)c1cccc(S(=O)(=O)n2c(CCCC(=O)O)cc3cc(C(F)(F)F)ccc32)c1`, the melting point was in the range of 135 to 141 °C.
Then `O=C1NC(=O)C(CC#Cc2ccc(Cl)cc2)(S(=O)(=O)c2cc(Cl)c(Cl)s2)S1` (stereo not given), with 160 °C; and `O=C(c1ccc([N+](=O)[O-])cc1)c1ccc2c(n1)C(O)CCCN2` (stereo not given), with 182 to 185 °C; and `N#Cc1nn(-c2c(Cl)cc(C(F)(F)F)cc2Cl)c(Cl)c1C#CBr`, with 153 °C.
Then `COc1ccc(Cc2nccc3ccccc23)cc1OC`, with 146 to 147 °C.
Then `CCOC(=O)c1[nH]c(C(=O)OCC)c(C)c1C`, with 66 to 68 °C; and `Brc1ccc2c(c1)C(c1ccccn1)=CCc1nncn1-2`, with 219 °C; and `O=[N+]([O-])c1ccc(Oc2ccc(C34CC5CC(C3)CC(c3ccc(Oc6ccc([N+](=O)[O-])c(O)c6)cc3)(C5)C4)cc2)cc1O`, with 118 to 122 °C.
Regarding `CCCCCCC(Oc1ccc(NC(=O)NC(=O)c2c(Cl)cccc2Cl)cc1)c1ccccc1` (stereo not given), the melting point fell in the range of 146 to 149 °C.
With `O=C1C(Nc2ccccc2)=CC(=O)c2ncccc21`, the melting point was in the range of 182 to 184 °C.
Then `CN(C)c1cccc(NC(=O)N(C[C@H]2CC[C@H](CN(C(=O)Nc3cccc(N(C)C)c3)C3CCCCCC3)CC2)C2CCCCCC2)c1`, with 151 to 156 °C; and `Cc1nc(C(C)C)c(Sc2cc(Cl)cc(Cl)c2)n1C`, with 95 to 96 °C; and `CC(C)C(NS(=O)(=O)c1ccc(Cl)s1)c1ncnn1Cc1ccccc1` (stereo not given), with 138 to 139 °C.
Then `Cc1ccc(CC(C)NCC(O)c2cc3ccccc3o2)cc1` (stereo not given), with 88 to 100 °C; and `CCCc1c(OCCCOc2ccc(C#N)cc2Cl)ccc(C(C)=O)c1O`, with 96 to 97 °C; and `COc1ccc(Cc2cccc(C(O)(C3=NCCCN3)c3ccccc3)c2)cc1` (stereo not given), with 92 °C.
Then `Cn1c([N+](=O)[O-])cnc1-c1nc(C=O)cs1`, with 180 to 182 °C; and `CC1COc2c(N3CCN(C#N)CC3NC(=N)N)c(F)cc3c(=O)c(C(=O)O)cn1c23` (stereo not given), with 298 to 300 °C.
`CCNc1nc(C)c(-c2ccnc(Nc3ccc(N4CCCCC4)c(C)c3)n2)s1` had a melting point of 213 to 214 °C.
Then `COC(=O)c1cccc2c1c1c(OC)c3c(cc1n2Cc1ccccc1)CCCC3`, with 144 to 146 °C.
Consider `O=C1NCCCN1C1CCN(CC(O)COc2ccccc2Cl)CC1` (stereo not given), for which the melting point was in the range of 150 to 153 °C.
The molecule `CC(C)COC(=O)C(N)C=CCP(=O)(O)O` (stereo not given) displayed a melting point of 163 to 164 °C.
With `C[C@]1(CN2CCN(C(=O)OCC=Cc3ccc(C(F)(F)F)cc3)CC2)Cn2cc([N+](=O)[O-])nc2O1`, the melting point is 132 to 133 °C.
Then `CS(=O)(=O)OCc1cc(I)cc(I)c1I`, with 130 to 133 °C; and `CC(=O)OCCOc1ncnc(NS(=O)(=O)c2ccc(C)cc2)c1C=O`, with 130 to 144 °C; and `CN(C(=O)CBr)c1ccc(Cl)cc1Cc1ccccc1`, with 78 °C.
As to `Brc1ncnn1C(c1ccccc1)(c1ccccc1)c1ccccc1`, the melting point lay within 239 to 241 °C.
As to `CCOC(=O)C1(NC(=O)CC)Cc2cccc3c2N(CCC3)C1=O` (stereo not given), the melting point was 136 to 140 °C.
Then `CC1(C)OC(=O)C(Sc2nccs2)=C1c1ccc(S(C)(=O)=O)cc1`, with 174 to 176 °C; and `Cc1cc(C)c(Nc2nc(C)ccc2S(=O)(=O)c2ccc(OCCCO)cc2)c(C)c1`, with 152 to 153 °C.
Then `C[C@]12CCC(=O)N[C@@H]1CCc1cc(Sc3cccc(F)c3)ccc12`, with 154 to 156 °C; and `CCOC(=O)CN1CCN(C2=Nc3ccccc3Oc3ccc(Cl)cc32)CC1`, with 123 to 124 °C.
`Clc1ccc2c(c1)N(CC#CCN1CCCC1)c1ccccc1S2` had a melting point of 48 to 50 °C.
On to `N#Cc1ccc(CCC(O)c2ccc(C#N)cc2)cc1` (stereo not given), for which the melting point lay within 110 to 112 °C.
Take `CC(C)(O)c1ccc(-c2cnc3[nH]c(=O)n(CCC4CCOCC4)c3n2)cn1`: the melting point lay within 132 to 133 °C.
Consider `COc1ccc(S(=O)(=O)c2c(-c3ccccc3)oc3ccccc23)cc1`, for which the melting point is 146 to 148 °C.
Then `COc1ccc(C2(c3ccc(OC)cc3)CCN(C[C@H]3CN(C)[C@@H]4Cc5c[nH]c6cccc(c56)[C@@]4(OC)C3)CC2)cc1`, with 215 to 222 °C.
Take `CCOC(=O)c1cc2ccc3cc4ccccc4cc3c2n1C`: the melting point lay within 165 to 166 °C.
Molecule `CCOC(=O)COc1ccc(Cc2ccc(O)cc2)c(Cl)c1Cl` showed a melting point of 102 to 103 °C.
Then `CCCc1nn(-c2ccc(C(F)(F)F)cn2)cc1CCCCOc1ccc(CCC(=O)O)c(C)c1`, with 105 to 107 °C; and `CCCCN(CCCOc1ccc2ccccc2c1)c1ccc(OC)cc1`, with 127 °C.
`O=C(Oc1ccccc1)N1Cc2ccccc2C(c2ccccc2)c2ccccc21` (stereo not given) yielded a melting point of 155 to 165 °C.
Then `CC(=O)OCc1nc(C(Cl)Cl)cnc1N1C(=O)c2ccccc2C1=O`, with 117 to 118 °C; and `CC1NC(=O)Nc2ccc(C(=O)CBr)cc21` (stereo not given), with 188 to 190 °C.
Then `CN1CC=C(c2cnn3c(-c4cccc(NC(=O)c5cccc(C(F)(F)F)c5)c4)ccnc23)CC1`, with 163 to 165 °C.
Then `CCOC(=O)c1c(SCOC)nc2c(F)c(F)c(F)cc2c1O`, with 91 to 94 °C; and `COc1ccc(C(=O)C#N)cc1`, with 51 to 53 °C.
`Clc1cccc(CCC2(Cn3ccnc3)SCCS2)c1` showed a melting point of 224 to 227 °C.
In the case of `CCC(C)(NC(=O)c1cc(Cl)cc(Cl)c1)C(=O)CCl` (stereo not given), the melting point is 159 to 161 °C.
Then `CCCCN1C(=O)CC(=O)N(C)c2ccccc21`, with 141 to 143 °C; and `Cc1ccc(C2C3=C(CC(C)(C)CC3=O)NC3=C2C(=O)CC(C)(C)C3)cc1C`, with over 300 °C; and `Cc1cc(-c2nc3cc(F)cc(F)c3c(=O)[nH]2)cc(C)c1OCCN1CCCC1`, with 234 to 235 °C.
Then `COC(=O)C=Cc1csc2ccccc12`, with 63 to 65 °C; and `CCCN1CC(C)=C(C)C2=C1N1CN(OC)C=C1C=N2`, with 91 to 92.5 °C; and `COc1cc(N)c(SCc2ccccc2)cc1OC`, with 86 to 88 °C.
Molecule `COC(C)=CC(=O)Nc1cccc(OC(=O)NC2CCCCC2)c1` had a melting point of 200 °C.
Regarding `O=C(CCC#Cc1ccccn1)Nc1ccccc1F`, the melting point was in the range of 82 to 84 °C.
Then `CCOC(=O)c1sc(Cl)nc1-c1ccc([N+](=O)[O-])cc1`, with 146 to 148 °C.
`O=C(Nc1ccc(Cl)cc1)C(CS)Cc1ccccc1` (stereo not given) had a melting point of 142 °C.
Then `NCC1Cc2cc(C(F)(F)F)cc(-c3ccsc3)c2O1` (stereo not given), with over 250 °C; and `C[Si](C)(C)N=C(C(=N[Si](C)(C)C)c1ccccc1)c1ccccc1`, with 69 to 70 °C.
Then `COc1ccnc2[nH]c(CO)cc12`, with 210 to 212 °C; and `Oc1cccnc1Cc1cccc(Br)c1`, with 160 to 162 °C; and `Cn1cc(-c2cc3cccnc3[nH]2)c2cc(C(=O)NC(C)(CO)CO)ccc21`, with 180 to 182 °C.
Then `Nc1ccc(NC(=O)C=C2CC(C(=O)OCc3ccccc3)Nc3cc(Cl)cc(Cl)c32)cc1` (racemic), with 80 °C; and `O=C1NC(C2CCCCC2)C1O` (stereo not given), with 140 °C.
In the case of `CSc1nc(C)nc(SC)c1NC(=O)CCCCCSc1nc2ccccc2o1`, the melting point is 148 to 151 °C.
`O=S1(=O)c2cccc3cccc(c23)N1CCCN1CC=C(c2c[nH]c3ccc(Cl)cc23)CC1` registered a melting point of 189 °C.
In the case of `CCn1cc(C(=O)O)c(=O)c2cc(F)c(N3CCC(CNC)C3)cc21` (stereo not given), the melting point lay in the range of 247 to 250 °C.
Then `CSC(C(=O)N1CCOCC1)c1cccc(C(=O)c2ccccc2)c1N` (stereo not given), with 119 to 121 °C; and `COc1ccc([N+](=O)[O-])cc1OCCCCl`, with 85 to 87 °C; and `OCC(O)COc1cccc2cccnc12` (stereo not given), with 193 to 194 °C.
For `CCOC(=O)c1cc2cccc(NS(=O)(=O)c3ccccc3OC)c2n1COC`, the melting point fell in the range of 106 to 107 °C.

One may read the melting point as the temperature, or range, at which the solid turns liquid.
